Reference: the NIST ThermoML archive (doi:10.1021/acs.jced.6b00575)
± gives the expanded uncertainty stated by the source.

Conditions: 101.33 kPa, Liquid; for electrical conductivity: Alternating current cell with electrodes; for viscosity: Concentric cylinders viscometry; for mass density: Vibrating tube method

CCC(=O)[NH+](C)C.O=S(=O)([N-]S(=O)(=O)C(F)(F)F)C(F)(F)F
Conditions | electrical conductivity [S/m] | mass density [kg/m3] | viscosity [mPa·s]
273.15 K | 0.053 ± 0.001 | 1546.8 ± 1.7 | 583.6 ± 21
278.15 K | 0.075 ± 0.002 | 1541.52 ± 1.7 | 401.3 ± 13
283.15 K | 0.103 ± 0.002 | 1536.2 ± 1.7 | 284.2 ± 8.5
288.15 K | 0.136 ± 0.003 | 1530.91 ± 1.7 | 207.2 ± 5.6
293.15 K | 0.177 ± 0.004 | 1525.62 ± 1.6 | 154.9 ± 3.9
298.15 K | 0.225 ± 0.005 | 1520.35 ± 1.6 | 117.7 ± 2.7
303.15 K | 0.28 ± 0.006 | 1515.12 ± 1.6 | 91.33 ± 2
313.15 K | 0.415 ± 0.008 | 1504.73 ± 1.6 | 57.92 ± 1.2
323.15 K | 0.585 ± 0.012 | 1494.43 ± 1.6 | 39.33 ± 0.82
333.15 K | 0.787 ± 0.016 | 1484.21 ± 1.6 | 27.84 ± 0.58
343.15 K | 1.01 ± 0.02 | 1474.06 ± 1.6 | 20.58 ± 0.43
353.15 K | 1.28 ± 0.026 | 1463.98 ± 1.6 | 15.67 ± 0.33
363.15 K | – | 1453.97 ± 1.6 | 12.28 ± 0.26

CC(=O)[NH+](C)C.O=S(=O)([N-]S(=O)(=O)C(F)(F)F)C(F)(F)F [N,N-dimethylacetamidium bis(trifluoromethanesulfonyl)amide]
Conditions | electrical conductivity [S/m] | mass density [kg/m3] | viscosity [mPa·s]
313.15 K | 0.403 ± 0.008 | 1549.8 ± 1.7 | 67.83 ± 1.4
323.15 K | 0.574 ± 0.011 | 1539.4 ± 1.7 | 44.71 ± 0.93
333.15 K | 0.782 ± 0.016 | 1529.1 ± 1.7 | 31.31 ± 0.65
343.15 K | 1.02 ± 0.02 | 1518.6 ± 1.6 | 22.85 ± 0.48
353.15 K | 1.29 ± 0.026 | 1508.1 ± 1.6 | 17.35 ± 0.36
363.15 K | – | 1497.8 ± 1.6 | 13.51 ± 0.28

CC(=O)N(C)C [N,N-dimethylethanamide]
Conditions | mass density [kg/m3] | viscosity [mPa·s]
273.15 K | 959.16 ± 0.98 | 1.41 ± 0.03
278.15 K | 954.56 ± 0.98 | 1.29 ± 0.03
283.15 K | 949.95 ± 0.97 | 1.19 ± 0.03
288.15 K | 945.35 ± 0.97 | 1.09 ± 0.02
293.15 K | 940.74 ± 0.96 | 1 ± 0.02
298.15 K | 936.13 ± 0.96 | 0.946 ± 0.02
303.15 K | 931.51 ± 0.96 | 0.883 ± 0.019
313.15 K | 922.26 ± 0.95 | 0.772 ± 0.017
323.15 K | 912.99 ± 0.94 | 0.692 ± 0.015
333.15 K | 903.68 ± 0.93 | 0.614 ± 0.014
343.15 K | 894.31 ± 0.92 | 0.553 ± 0.013
353.15 K | 884.9 ± 0.91 | 0.502 ± 0.011
363.15 K | 875.43 ± 0.9 | 0.459 ± 0.011

CCC(=O)N(C)C [N,N-dimethylpropionamide]
Conditions | mass density [kg/m3] | viscosity [mPa·s]
273.15 K | 942.45 ± 3.8 | 1.44 ± 0.03
278.15 K | 938.02 ± 3.8 | 1.32 ± 0.03
283.15 K | 933.6 ± 3.8 | 1.21 ± 0.03
288.15 K | 929.18 ± 3.8 | 1.11 ± 0.03
293.15 K | 924.75 ± 3.8 | 1.02 ± 0.02
298.15 K | 920.32 ± 3.7 | 0.958 ± 0.022
303.15 K | 915.93 ± 3.7 | 0.892 ± 0.021
313.15 K | 907.04 ± 3.7 | 0.778 ± 0.018
323.15 K | 898.13 ± 3.6 | 0.696 ± 0.017
333.15 K | 889.17 ± 3.6 | 0.618 ± 0.015
343.15 K | 880.17 ± 3.6 | 0.556 ± 0.013
353.15 K | 871.11 ± 3.5 | 0.504 ± 0.012
363.15 K | 861.99 ± 3.5 | 0.46 ± 0.011

CN(C)C=O [dimethylformamide]
Conditions | mass density [kg/m3] | viscosity [mPa·s]
273.15 K | 967.56 ± 0.12 | 1.14 ± 0.02
278.15 K | 962.83 ± 0.12 | 1.06 ± 0.02
283.15 K | 958.1 ± 0.12 | 0.979 ± 0.021
288.15 K | 953.37 ± 0.12 | 0.891 ± 0.019
293.15 K | 948.61 ± 0.12 | 0.845 ± 0.018
298.15 K | 943.85 ± 0.13 | 0.81 ± 0.017
303.15 K | 939.07 ± 0.13 | 0.765 ± 0.016
313.15 K | 929.5 ± 0.13 | 0.684 ± 0.015
323.15 K | 919.86 ± 0.14 | 0.615 ± 0.013
333.15 K | 910.17 ± 0.14 | 0.535 ± 0.012
343.15 K | 900.41 ± 0.14 | 0.484 ± 0.011
353.15 K | 890.57 ± 0.15 | 0.436 ± 0.01
363.15 K | 880.65 ± 0.15 | 0.398 ± 0.009
